Here are results for one compound from patent US6809084B1, “Compositions containing polysaccharides from phellinus linteus and methods for treating diabetes mellitus using same” (Korea Research Institute of Bioscience and Biotechnology, priority 2000, dated 2004).

The subject of this experiment is ICR mouse. Description: Streptozotocin-induced diabetes in ICR mice. The experiment is classed as in vivo. Particulars: 60 mg/kg three times i.p., normal ICR mouse 200 mg/dl. As to the method:
FIG. 7 illustrates the effect of PL on experimental group with streptozotocin-induced diabetes. Blood glucose values were measured with Accutrend sensor system (Boehringer Mannheim, Germany).
Streptozotocin, which can induce Insulin-dependent diabetes mellitus, destroys selectively pancreatic beta cells, and diabetes mellitus induced :by streptozotocin is similar with diabetes naturally occurring in NOD mice. […] ICR mouse received 60 mg/kg of streptozotocin three times with intraperitoneal injection. Streptozotocin was used in solution of citrate buffer (pH 4.2, 4° C.). The blood glucose level of ICR mouse treated with streptozotocin was 450 mg/dl, whereas that of normal ICR mouse without streptozotocin was 200 mg/dl (FIG. 7).

The compound `CN(N=O)C(=O)N[C@H]1C(O)O[C@H](CO)[C@@H](O)[C@@H]1O` (mixture of isomers) [streptozotocin] displayed a blood glucose level of 450 mg/dL.
